Target: T1, rat P2X7-GFP (Rattus norvegicus, UniProt Q64663)
T1 construct: expressed in transfected cells; host or cells: HEK-293 cells stably expressing rat P2X7-GFP (patch clamp)
T1 sequence (Q64663 1-595): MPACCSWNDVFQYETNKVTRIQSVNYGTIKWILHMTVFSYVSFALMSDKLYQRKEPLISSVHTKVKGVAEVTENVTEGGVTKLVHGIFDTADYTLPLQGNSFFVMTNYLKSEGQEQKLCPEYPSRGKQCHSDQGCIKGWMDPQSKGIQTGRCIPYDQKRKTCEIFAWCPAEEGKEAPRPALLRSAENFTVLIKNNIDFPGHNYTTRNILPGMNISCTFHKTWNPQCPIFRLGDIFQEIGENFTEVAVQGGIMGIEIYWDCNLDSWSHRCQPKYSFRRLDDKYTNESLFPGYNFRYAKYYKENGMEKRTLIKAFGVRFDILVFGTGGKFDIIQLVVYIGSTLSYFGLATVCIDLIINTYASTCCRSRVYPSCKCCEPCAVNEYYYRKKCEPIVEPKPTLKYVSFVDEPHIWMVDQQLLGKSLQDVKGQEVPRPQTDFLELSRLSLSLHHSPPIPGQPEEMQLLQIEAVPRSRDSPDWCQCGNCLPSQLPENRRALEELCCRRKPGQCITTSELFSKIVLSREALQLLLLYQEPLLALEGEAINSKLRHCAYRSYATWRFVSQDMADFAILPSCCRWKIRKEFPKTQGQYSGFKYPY
Test: Whole-cell patch clamp electrophysiology
Type: cell-based
Method: Whole-cell patch-clamp traces were recorded at room temperature using patch pipettes pulled from borosilicate glass (World Precision Instruments, Sarasota, FL, United States). Pipettes were filled with internal solution (IS) containing (in mM): 145 NaCl, 10 EGTA and 10 HEPES, with the pH adjusted to 7.3 with NaOH and had resistances of 3–5 MΩ. Cells were constantly perfused in a bath with ECS-LD. Currents were recorded at a holding membrane potential of −60 mV using an Axon Instruments Axopatch Multiclamp 700A amplifier and Digidata 1322A A/D interface (Molecular Devices, Sunnyvale, CA, United States). […] ATP applications were made at 90-s intervals. Solutions were applied to patch-clamped cells with the help of a rapid perfusion system (RSC-160, Biologic, Claix, France), allowing solution exchange times in the range […].
In order to confirm GP-25 as a competitive (orthosteric) antagonist, BzATP concentration-response curves (ranging between 300 μM and .03 µM) were constructed for rat P2X7-GFP in the YoPro-1 uptake assay in the presence of increasing concentrations of GP-25 (Figure 3A).

COC(=O)C1=C(C)NC2=C(C(=O)c3ccccc32)C1c1cc(Br)ccc1OCC(=O)O (centres unmarked) [Compound 9, (4-bromo-2-(3-(methoxycarbonyl)-2-methyl-5-oxo-4,5-dihydro-1H-indeno(1,2-b)pyridine-4-yl)phenoxy)acetic acid]
reduction in P2X7 activity at 25 µM (25 µM compound, patch clamp): statistically significant reduction | inhibition of ATP-evoked currents (GP-25 pre-applied for 2 min, 300 µM ATP, HEK-293 cells): concentration-dependent inhibition
